In general, AUC(0-t) refers to the area under the concentration-time curve up to a stated or last time point. A higher AUC(0-t) goes with high exposure. Usually Cmax stands for the highest concentration seen after dosing. What is called clearance is the volume of plasma or blood freed of the substance per unit of time. In general, half-life refers to the time in which the quantity being followed falls by half. Low readings indicate fast loss, high ones slow loss.

We go through one molecule from paper PMC3421038 (The Pediatric infectious disease journal, 2012).

Series [1] has as its system hepatic cytochrome P450 enzyme system. The conditions noted are these: cited from earlier work.
The conditions of series [2]: in vivo.
For series [3] the following is noted: human, in vivo; cited from earlier work.
The conditions of series [4]: human, in vivo, iv, 6 mg/kg.
For series [5] the following is noted: human, in vivo, cited from earlier work.
For series [6] the following is noted: in vivo, cited from earlier work.

Read-outs that look alike come from different tables or passages of the source.

In the case of `CCCCCCCCCC(=O)N[C@@H](Cc1c[nH]c2ccccc12)C(=O)N[C@H](CC(N)=O)C(=O)N[C@@H](CC(=O)O)C(=O)N[C@@H]1C(=O)NCC(=O)N[C@@H](CCCN)C(=O)N[C@@H](CC(=O)O)C(=O)N[C@H](C)C(=O)N[C@@H](CC(=O)O)C(=O)NCC(=O)N[C@H](CO)C(=O)N[C@@H]([C@H](C)CC(=O)O)C(=O)N[C@@H](CC(=O)c2ccccc2N)C(=O)O[C@@H]1C` [daptomycin], in series [1], the “effect on the hepatic cytochrome P450 enzyme system” value was “does not have an effect”. In series [2], the “CPK value after the dose of daptomycin” value was determined as 86 IU/L, the “CPK value before the dose of daptomycin” value is reported as 132 IU/L, the “calcium level after the daptomycin dose” value amounted to 9.7 and the “calcium level before the daptomycin dose” value worked out at 9.3. Besides, the “respiratory rate, temperature, heart rate, or mean blood pressure during the daptomycin infusion” value in series [2] (6 mg/kg) was “No significant changes”. Moreover, in series [2] (iv, 6 mg/kg), the “adverse events classified as serious adverse events” value is listed as “Five”, the “adverse events related to study drug” value was “None”, the “adverse events reported (number of events)” value stood at 34 and the “subjects with adverse events” value is reported as 55%. Besides, in series [3], the “patients with cellulitis as serious adverse event” value is 1.3%, the “patients with elevation of CPK concentrations” value is recorded as 2.1% and the renal toxicity result was “does not cause renal toxicity”. Moreover, in series [4], the AUC(0-t) was 262 µg·h/mL, the concentration peaked (Cmax) at 25500 ng/mL, the clearance was 0.35 mL/min/kg and the half-life is 6.2 h. In addition, the “mean exposure (AUCinf)” value in series [5] (8 mg/kg) was 429 µg·h/mL. Also, the “mean exposure (AUCinf)” value in series [5] (10 mg/kg) was 550 µg·h/mL. Moreover, the “mean exposure (AUCinf)” value in series [6] (4 mg/kg) is 417 µg·h/mL. Moreover, in series [6], the “administered dose excreted within 24 hours as intact drug” value is 50% and the “kinetics (dose linearity)” value is reported as “linear kinetics”.
